Assay results from ChEMBL document CHEMBL4842379 (J Med Chem, 2021).
The source made the active and inactive calls. The calls are words filed in the database; no cut-off is given here.

Assays:
[1] = Reversal of resistance to paclitaxel-induced cytotoxicity in paclitaxel-resistant human SW-620/AD300 cells assessed as reduction in paclitaxel IC50 at 2 uM pre-incubated for 4 hrs followed by paclitaxel addition and measured after 72 hrs by MTT assay; type: functional, cell-based
[2] = system: HEK-293T; test: Cytotoxicity against human HEK293T cells expressing ABCB1 (unknown origin) measured after 72 hrs by MTT assay; type: functional, cell-based
[3] = Cytotoxicity against paclitaxel-resistant human SW620/AD300 cells measured after 72 hrs by MTT assay; type: functional, cell-based; settings: SW-620, 72 h
[4] = system: SW-620; test: In vivo antitumor activity against paclitaxel-resistant human SW620/AD300 cells xenografted in mouse assessed as reduction in tumor volume at 20 mg/kg, po in presence of 5 mg/kg paclitaxel treated for 3 days measured for 19 days; type: functional, organism-based; settings: time 19.0 day
[5] = Toxicity in mouse xenografted with paclitaxel-resistant human SW620/AD300 cells assessed as change in body weight at 20 mg/kg, po measured for 19 days; type: organism-based; settings: in vivo, 456 h, time 19 day
[6] = Reversal of resistance to colchicine-induced cytotoxicity in human SW620/AD300 cells assessed as reduction in colchicine IC50 at 2 uM pre-incubated for 4 hrs followed by colchicine addition and measured after 72 hrs by MTT assay; type: functional, cell-based; settings: SW-620
[7] = system: SW-620; test: Reduction in P-gp expression in paclitaxel-resistant human SW620/AD300 cells measured after 72 hrs by Western blotting analysis; type: functional, cell-based
[8] = target: T1, ATP-dependent translocase ABCB1 (Homo sapiens, UniProt P08183); test: Inhibition of P-gp in paclitaxel-resistant human SW620/AD300 cells assessed as rescue of intracellular Rhodamine 123 accumulation incubated for 24 hrs by flow cytometry; type: cell-based; settings: sw-620, 24 h, dose 0.5-2 µM
[9] = Reversal of resistance to paclitaxel-induced cytotoxicity in human SW620/AD300 cells assessed as reduction in paclitaxel IC50 at 1 uM pre-incubated for 4 hrs followed by paclitaxel addition and measured after 72 hrs by MTT assay; type: functional, cell-based; settings: SW-620
[10] = system: SW-620; test: Effect on intracellular Rhodamine 123 accumulation in human SW620 cells at 0.5 to 2 uM incubated for 24 hrs by flow cytometry; type: functional, cell-based; settings: dose 0.5-2 µM
[11] = target: T1, ATP-dependent translocase ABCB1; test: Inhibition of P-gp in paclitaxel-resistant human SW620/AD300 cells assessed as accumulation of paclitaxel incubated for 24 hrs by HPLC analysis; type: cell-based; settings: sw-620, 24 h
[12] = target: Cytochrome P450 3A4 (Homo sapiens, UniProt P08684); test: Inhibition of human recombinant CYP3A4 by fluorescence assay; type: ADME
[13] = system: SW-620; test: Effect on P-gp subcellular localization in paclitaxel-resistant human SW620/AD300 cells measured after 72 hrs by Hoechst 33258 staining based immunocytochemistry analysis; type: functional, cell-based
[14] = Toxicity in mouse xenografted with paclitaxel-resistant human SW620/AD300 cells assessed as change in body weight at 20 mg/kg, po in presence of 5 mg/kg paclitaxel treated for 3 days measured for 19 days; type: organism-based; settings: in vivo, 456 h, time 19 day
[15] = target: T1, ATP-dependent translocase ABCB1; test: Stabilization of P-gp in paclitaxel-resistant human SW620/AD300 cells at higher temperature incubated for 30 mins by Western blot based cellular thermal shift assay; type: cell-based; settings: sw-620, 0.5 h
[16] = Reversal of resistance to colchicine-induced cytotoxicity in human SW620/AD300 cells assessed as reduction in colchicine IC50 at 1 uM pre-incubated for 4 hrs followed by colchicine addition and measured after 72 hrs by MTT assay; type: functional, cell-based; settings: SW-620
[17] = target: T1, ATP-dependent translocase ABCB1; test: Inhibition of recombinant human P-gp ATPase activity incubated for 60 mins by luminescence based Glo assay
[18] = Reversal of resistance to colchicine-induced cytotoxicity in human SW620/AD300 cells assessed as reduction in colchicine IC50 at 0.5 uM pre-incubated for 4 hrs followed by colchicine addition and measured after 72 hrs by MTT assay; type: functional, cell-based; settings: SW-620
[19] = Reversal of resistance to paclitaxel-induced cytotoxicity in human SW620/AD300 cells assessed as reduction in paclitaxel IC50 at 0.5 uM pre-incubated for 4 hrs followed by paclitaxel addition and measured after 72 hrs by MTT assay; type: functional, cell-based; settings: SW-620
[20] = target: Epidermal growth factor receptor (Homo sapiens, UniProt P00533, L858R); test: Inhibition of EGFR L858R mutant (unknown origin)
Epidermal growth factor receptor, sequence (P00533 25-1210 L858R limits assumed): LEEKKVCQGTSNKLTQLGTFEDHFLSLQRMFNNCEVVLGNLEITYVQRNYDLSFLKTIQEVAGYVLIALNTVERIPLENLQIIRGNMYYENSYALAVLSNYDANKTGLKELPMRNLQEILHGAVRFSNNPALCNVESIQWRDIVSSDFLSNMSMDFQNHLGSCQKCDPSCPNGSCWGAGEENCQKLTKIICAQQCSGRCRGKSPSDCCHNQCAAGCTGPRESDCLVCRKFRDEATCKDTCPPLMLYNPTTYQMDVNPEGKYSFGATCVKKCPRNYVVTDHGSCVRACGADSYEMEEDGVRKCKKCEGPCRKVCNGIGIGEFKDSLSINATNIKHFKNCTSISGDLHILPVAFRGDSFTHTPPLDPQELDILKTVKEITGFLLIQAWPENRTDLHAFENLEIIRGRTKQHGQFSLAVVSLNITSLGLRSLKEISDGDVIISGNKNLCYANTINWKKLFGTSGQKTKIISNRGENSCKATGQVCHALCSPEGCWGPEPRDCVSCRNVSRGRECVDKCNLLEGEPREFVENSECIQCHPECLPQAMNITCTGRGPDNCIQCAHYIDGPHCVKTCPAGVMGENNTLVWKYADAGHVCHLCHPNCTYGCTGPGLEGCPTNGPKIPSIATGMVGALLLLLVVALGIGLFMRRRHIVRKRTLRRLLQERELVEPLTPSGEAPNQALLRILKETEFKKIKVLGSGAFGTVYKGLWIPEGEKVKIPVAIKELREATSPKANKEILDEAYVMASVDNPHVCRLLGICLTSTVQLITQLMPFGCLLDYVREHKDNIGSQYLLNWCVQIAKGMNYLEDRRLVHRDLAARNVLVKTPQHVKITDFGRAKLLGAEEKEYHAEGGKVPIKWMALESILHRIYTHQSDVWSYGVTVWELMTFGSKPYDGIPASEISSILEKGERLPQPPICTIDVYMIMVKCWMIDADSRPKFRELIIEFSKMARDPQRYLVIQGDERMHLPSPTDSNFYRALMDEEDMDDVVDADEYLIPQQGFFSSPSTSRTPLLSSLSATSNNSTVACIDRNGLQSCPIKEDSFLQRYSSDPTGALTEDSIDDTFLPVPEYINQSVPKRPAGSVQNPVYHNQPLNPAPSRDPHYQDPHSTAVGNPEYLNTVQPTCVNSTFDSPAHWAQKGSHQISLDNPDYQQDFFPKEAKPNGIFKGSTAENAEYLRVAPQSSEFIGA

T1 sequence (P08183 whole entry): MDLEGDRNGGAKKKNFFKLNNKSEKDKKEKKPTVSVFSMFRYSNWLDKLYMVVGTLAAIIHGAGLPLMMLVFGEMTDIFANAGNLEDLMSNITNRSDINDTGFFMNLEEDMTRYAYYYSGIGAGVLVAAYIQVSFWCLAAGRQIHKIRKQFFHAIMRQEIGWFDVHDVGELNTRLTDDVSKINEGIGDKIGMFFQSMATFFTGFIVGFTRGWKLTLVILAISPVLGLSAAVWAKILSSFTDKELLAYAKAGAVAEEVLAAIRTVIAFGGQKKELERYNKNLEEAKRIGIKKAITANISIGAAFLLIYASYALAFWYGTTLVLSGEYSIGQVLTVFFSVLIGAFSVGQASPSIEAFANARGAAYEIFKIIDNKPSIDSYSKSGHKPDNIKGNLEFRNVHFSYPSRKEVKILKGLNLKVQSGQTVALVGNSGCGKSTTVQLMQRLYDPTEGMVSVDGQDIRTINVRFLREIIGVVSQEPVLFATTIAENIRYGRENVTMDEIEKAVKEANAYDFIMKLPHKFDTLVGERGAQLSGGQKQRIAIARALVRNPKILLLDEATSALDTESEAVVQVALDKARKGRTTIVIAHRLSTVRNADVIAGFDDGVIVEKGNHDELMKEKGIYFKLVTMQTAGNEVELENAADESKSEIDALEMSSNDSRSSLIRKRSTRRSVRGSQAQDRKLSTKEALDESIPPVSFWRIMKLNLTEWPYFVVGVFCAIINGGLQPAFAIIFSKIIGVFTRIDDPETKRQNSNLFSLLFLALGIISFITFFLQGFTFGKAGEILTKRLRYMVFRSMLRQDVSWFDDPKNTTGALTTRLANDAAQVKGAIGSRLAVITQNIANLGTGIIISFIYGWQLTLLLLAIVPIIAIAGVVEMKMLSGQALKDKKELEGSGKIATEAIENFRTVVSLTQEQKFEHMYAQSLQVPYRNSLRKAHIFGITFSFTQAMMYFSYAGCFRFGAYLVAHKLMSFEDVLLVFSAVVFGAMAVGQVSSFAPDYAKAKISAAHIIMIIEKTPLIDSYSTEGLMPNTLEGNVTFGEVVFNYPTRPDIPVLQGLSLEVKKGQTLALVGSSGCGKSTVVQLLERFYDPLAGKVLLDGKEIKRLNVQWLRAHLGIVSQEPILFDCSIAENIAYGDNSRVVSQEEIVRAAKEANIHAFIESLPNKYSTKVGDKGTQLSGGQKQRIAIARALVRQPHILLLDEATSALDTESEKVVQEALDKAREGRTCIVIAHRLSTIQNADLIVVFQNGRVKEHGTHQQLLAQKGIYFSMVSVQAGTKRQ
Cytochrome P450 3A4, sequence (P08684 whole entry): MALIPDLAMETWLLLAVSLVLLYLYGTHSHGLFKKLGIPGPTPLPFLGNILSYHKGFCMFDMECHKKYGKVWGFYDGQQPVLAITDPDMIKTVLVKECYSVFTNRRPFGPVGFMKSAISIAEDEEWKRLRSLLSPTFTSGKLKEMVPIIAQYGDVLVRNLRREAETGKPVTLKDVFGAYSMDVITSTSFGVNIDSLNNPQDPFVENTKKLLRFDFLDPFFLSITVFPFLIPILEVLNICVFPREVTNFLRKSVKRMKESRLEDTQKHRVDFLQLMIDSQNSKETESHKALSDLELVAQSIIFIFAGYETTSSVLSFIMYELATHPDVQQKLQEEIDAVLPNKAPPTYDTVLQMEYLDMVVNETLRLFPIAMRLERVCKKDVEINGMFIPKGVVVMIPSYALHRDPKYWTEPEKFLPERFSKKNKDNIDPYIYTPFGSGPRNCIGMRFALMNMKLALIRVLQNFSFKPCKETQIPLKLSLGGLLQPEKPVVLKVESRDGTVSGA

COc1cc2ncnc(-c3c(-c4cccc(C)c4)[nH]c4ccccc34)c2cc1OCCCN1CCOCC1
Paclitaxel IC50 in presence of compound at 2 uM [1]: 400 nM

COc1cc2c(c(OC)c1OC)-c1ccc(OC)c(=O)cc1[C@@H](NC(C)=O)CC2 [COLCHICINE]
IC50 [2]: 801000 nM
IC50 [3]: 62500 nM

CCn1c(-c2ccccc2)c(-c2ncnc3cc(OCCOC)c(OCCOC)cc23)c2ccccc21
Paclitaxel IC50 in presence of compound at 2 uM [1]: 800 nM

CCCCc1ccc(-c2[nH]c3ccccc3c2-c2ncnc3cc(OC)c(OCCCN4CCOCC4)cc23)cc1
Paclitaxel IC50 in presence of compound at 2 uM [1]: 100 nM

CCn1c(-c2ccccc2)c(-c2nc(-c3ccccc3)nc3ccccc23)c2ccccc21
Paclitaxel IC50 in presence of compound at 2 uM [1]: 1200 nM

COc1cc2ncnc(-c3cn(Cc4ccc(C#N)cc4)c4ccccc34)c2cc1OCCCN1CCOCC1
Paclitaxel IC50 in presence of compound at 2 uM [1]: 200 nM

CCc1ccc(-c2[nH]c3ccccc3c2-c2ncnc3cc(OC)c(OCCCN4CCOCC4)cc23)cc1
Paclitaxel IC50 in presence of compound at 2 uM [1]: 70 nM

CCCCn1cc(-c2ncnc3cc(OC)c(OCCCN4CCOCC4)cc23)c2ccccc21
Paclitaxel IC50 in presence of compound at 2 uM [1]: 400 nM

CCn1c(-c2ccccc2)c(-c2ncnc3ccccc23)c2ccccc21
Paclitaxel IC50 in presence of compound at 2 uM [1]: 2200 nM

COc1cc2ncnc(-c3c(-c4ccccc4)n(C)c4ccccc34)c2cc1OCCCN1CCOCC1
Paclitaxel IC50 in presence of compound at 2 uM [1]: 100 nM

COc1cc2ncnc(-c3c(-c4cccc(F)c4)[nH]c4ccccc34)c2cc1OCCCN1CCOCC1
Paclitaxel IC50 in presence of compound at 2 uM [1]: 800 nM

CCn1cc(-c2ncnc3cc(OC)c(OCCCN4CCOCC4)cc23)c2ccccc21
Paclitaxel IC50 in presence of compound at 2 uM [1]: 300 nM

COc1ccc2c(-c3ncnc4cc(OC)c(OCCCN5CCOCC5)cc34)cn(Cc3ccccc3)c2c1
Paclitaxel IC50 in presence of compound at 2 uM [1]: 100 nM

COc1cc2ncnc(-c3c(-c4ccccc4)n(Cc4ccccc4Br)c4ccccc34)c2cc1OCCCN1CCOCC1
Activity [4]: Active
Activity [5]: Non-Toxic
IC50 [6]: 6200 nM
Activity [7]: inactive
Activity [8]: Dose-Dependent Effect
IC50 [9]: 20 nM
Activity [10]: inactive
Activity [11]: Dose-Dependent Effect
IC50 [12]: 4100 nM
Activity [13]: inactive
Activity [14]: Non-Toxic
Activity [15]: Dose-Dependent Effect
IC50 [16]: 17200 nM
IC50 [17]: 5100 nM
Activity ([17]; human, 1 h, time 60 min): Dose-Dependent Effect
IC50 [18]: 26500 nM
IC50 [19]: 100 nM

C#CCn1c(-c2ccccc2)c(-c2ncnc3cc(OC)c(OCCCN4CCOCC4)cc23)c2ccccc21
Paclitaxel IC50 in presence of compound at 2 uM [1]: 2200 nM

CCn1c(-c2ccccc2)c(-c2ncnc3cc(OC)c(OC)cc23)c2ccccc21
Paclitaxel IC50 in presence of compound at 2 uM [1]: 1600 nM

COc1cc2ncnc(-c3c(-c4ccc(C(C)C)cc4)[nH]c4ccccc34)c2cc1OCCCN1CCOCC1
Paclitaxel IC50 in presence of compound at 2 uM [1]: 300 nM

COc1cc2ncnc(-c3c(-c4ccccc4)[nH]c4ccccc34)c2cc1OCCCN1CCOCC1
Paclitaxel IC50 in presence of compound at 2 uM [1]: 800 nM

COc1cc2ncnc(-c3c(CCc4ccccc4)[nH]c4ccccc34)c2cc1OCCCN1CCOCC1
Paclitaxel IC50 in presence of compound at 2 uM [1]: 200 nM

COc1cc2ncnc(-c3c(-c4ccccc4)n(Cc4ccc(Cl)cc4)c4ccccc34)c2cc1OCCCN1CCOCC1
Paclitaxel IC50 in presence of compound at 2 uM [1]: 7 nM

COc1ccc2c(c1)c(-c1ncnc3cc(OC)c(OCCCN4CCOCC4)cc13)cn2Cc1ccccc1
Paclitaxel IC50 in presence of compound at 2 uM [1]: 200 nM

CCn1c(-c2ccccc2)c(-c2ncnc3ccc(Br)cc23)c2ccccc21
Paclitaxel IC50 in presence of compound at 2 uM [1]: 2200 nM

COc1cc2ncnc(-c3c(-c4ccc(Br)cc4)[nH]c4ccccc34)c2cc1OCCCN1CCOCC1
Paclitaxel IC50 in presence of compound at 2 uM [1]: 200 nM

COc1cc2ncnc(-c3c(Cc4ccccc4)[nH]c4ccccc34)c2cc1OCCCN1CCOCC1
Paclitaxel IC50 in presence of compound at 2 uM [1]: 2000 nM

COc1cc2ncnc(-c3c(-c4ccc(F)cc4)[nH]c4ccccc34)c2cc1OCCCN1CCOCC1
Paclitaxel IC50 in presence of compound at 2 uM [1]: 300 nM

COc1cc2ncnc(-c3c(-c4ccc(C)cc4)[nH]c4ccccc34)c2cc1OCCCN1CCOCC1
Paclitaxel IC50 in presence of compound at 2 uM [1]: 300 nM

COc1cc2ncnc(-c3c(-c4ccc(Cl)cc4)[nH]c4ccccc34)c2cc1OCCCN1CCOCC1
Paclitaxel IC50 in presence of compound at 2 uM [1]: 20 nM

COc1cc2ncnc(-c3c(-c4cccc(Br)c4)[nH]c4ccccc34)c2cc1OCCCN1CCOCC1
Paclitaxel IC50 in presence of compound at 2 uM [1]: 3000 nM

COc1cc2ncnc(-c3cn(Cc4ccccc4)c4cccc(OC)c34)c2cc1OCCCN1CCOCC1
Paclitaxel IC50 in presence of compound at 2 uM [1]: 1000 nM

CCn1c(-c2ccccc2)c(-c2ncnc3cc(OC)c(OCCCN4CCOCC4)cc23)c2ccccc21
IC50 [20]: 1.3 nM
Paclitaxel IC50 in presence of compound at 2 uM [1]: 700 nM

COc1cc2ncnc(-c3c(-c4ccc5ccccc5c4)[nH]c4ccccc34)c2cc1OCCCN1CCOCC1
Paclitaxel IC50 in presence of compound at 2 uM [1]: 40 nM

COc1cc2ncnc(-c3c(-c4cccc([N+](=O)[O-])c4)[nH]c4ccccc34)c2cc1OCCCN1CCOCC1
Paclitaxel IC50 in presence of compound at 2 uM [1]: 600 nM

COc1cc2ncnc(-c3cn(Cc4cccc(C)c4)c4ccccc34)c2cc1OCCCN1CCOCC1
Paclitaxel IC50 in presence of compound at 2 uM [1]: 30 nM

COc1ccc(CCN(C)CCCC(C#N)(c2ccc(OC)c(OC)c2)C(C)C)cc1OC (configuration not stated)
IC50 [6]: 20600 nM
Activity [10]: inactive
Activity [11]: Dose-Dependent Effect

C=CCn1c(-c2ccccc2)c(-c2ncnc3cc(OC)c(OCCCN4CCOCC4)cc23)c2ccccc21
Paclitaxel IC50 in presence of compound at 2 uM [1]: 2300 nM

COc1cc2ncnc(-c3cn(Cc4ccccc4)c4ccccc34)c2cc1OCCCN1CCOCC1
Paclitaxel IC50 in presence of compound at 2 uM [1]: 50 nM

COc1cc2ncnc(-c3c(-c4ccccc4)n(Cc4cccc(Cl)c4)c4ccccc34)c2cc1OCCCN1CCOCC1
Paclitaxel IC50 in presence of compound at 2 uM [1]: 20 nM

COc1cc2ncnc(-c3c(-c4ccccc4F)[nH]c4ccccc34)c2cc1OCCCN1CCOCC1
Paclitaxel IC50 in presence of compound at 2 uM [1]: 500 nM

COc1cc2ncnc(-c3c(-c4ccccc4)n(Cc4cccc(Br)c4)c4ccccc34)c2cc1OCCCN1CCOCC1
Paclitaxel IC50 in presence of compound at 2 uM [1]: 20 nM

COc1cc2ncnc(-c3c(-c4ccc(C(F)(F)F)cc4)[nH]c4ccccc34)c2cc1OCCCN1CCOCC1
Paclitaxel IC50 in presence of compound at 2 uM [1]: 700 nM

COc1cc2ncnc(-c3c(-c4ccc(-c5ccccc5)cc4)[nH]c4ccccc34)c2cc1OCCCN1CCOCC1
Paclitaxel IC50 in presence of compound at 2 uM [1]: 20 nM

CC(=O)O[C@H]1C(=O)[C@@]2(C)[C@H]([C@H](OC(=O)c3ccccc3)[C@]3(O)C[C@H](OC(=O)[C@H](O)[C@@H](NC(=O)c4ccccc4)c4ccccc4)C(C)=C1C3(C)C)[C@]1(OC(C)=O)CO[C@@H]1C[C@@H]2O [PACLITAXEL]
IC50 [2]: 36400 nM
IC50 [3]: 2300 nM

COc1cc2ncnc(-c3cn(Cc4ccccc4Cl)c4ccccc34)c2cc1OCCCN1CCOCC1
Paclitaxel IC50 in presence of compound at 2 uM [1]: 20 nM

COc1cc2ncnc(-c3c(-c4ccccc4)n(CCCc4ccccc4)c4ccccc34)c2cc1OCCCN1CCOCC1
Paclitaxel IC50 in presence of compound at 2 uM [1]: 6 nM

COc1cc2ncnc(-c3c(-c4ccccc4)n(Cc4cccc(C(F)(F)F)c4)c4ccccc34)c2cc1OCCCN1CCOCC1
Paclitaxel IC50 in presence of compound at 2 uM [1]: 20 nM

COc1cc2ncnc(-c3c(-c4cccc(Cl)c4)[nH]c4ccccc34)c2cc1OCCCN1CCOCC1
Paclitaxel IC50 in presence of compound at 2 uM [1]: 200 nM
